Measured values published in the supplement of paper PMC3974653.
Counter-ions that a name gives are not always drawn.

These compounds were tested on MTT (mouse pheochromocytoma) (assay: IC50 of cell viability (ATP content)). Settings: (24 or 48 h).
Summary of the method: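 Cells of the MTT mouse pheochromocytoma line, 5 µl per well at 200,000 cells/ml, were grown overnight at 37°C, 5% CO2 in white 1536-well plates with DMEM, 5% FBS and 1% horse serum. Pintool transfer then delivered 23 nl of library compound in DMSO, giving 8 final concentrations from 0.5 nM to 46 µM, for an exposure of 24 or 48 hrs. Luminescence from CellTiter-Glo was read after 15 minutes and referenced to positive-control wells (100%) and DMSO wells (0%). IC50 was calculated with a four-parameter logistic fit.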

| SMILES | IC50 of cell viability [µM] |
| --- | --- |
| COc1ccc2c(c1)OC(C)(C)C(c1ccccc1)C2c1ccc(OCCN2CCCC2)cc1 (stereo not drawn) [ORMELOXIFENUM] | > 46 |
| COc1cc([C@H]2Oc3cc([C@H]4Oc5cc(O)cc(O)c5C(=O)[C@@H]4O)ccc3O[C@@H]2CO)ccc1O [Silibinin] | > 46 |
| CN/C(=C\[N+](=O)[O-])NCCSCc1csc(CN(C)C)n1 [Nizatidine] | > 46 |
| O=C1c2ccccc2C(=O)C1c1ccccc1 [Phenindione] | > 46 |
| OCCOc1ccccc1 [Ethylene glycol monophenyl ether] | > 46 |
| CC(C(=O)O)c1ccc(CC2CCCC2=O)cc1 (stereo not drawn) [loxoprofen] | > 46 |
| NC(=O)C[C@@H](N)C(=O)O [D-ASPARAGINE] | > 46 |
| Cc1ncc(C[n+]2csc(CCOP(=O)(O)O)c2C)c(N)n1 [MONOPHOSPHOTHIAMINUM] | > 46 |
| NNc1nnc(NN)c2ccccc12 [DIHYDRALAZINUM] | > 46 |
| CC(N/C(=N\C#N)Nc1ccncc1)C(C)(C)C (stereo not drawn) [PINACIDIL] | > 46 |
| CCCN(CCC)c1c([N+](=O)[O-])cc([S+](N)(=O)[O-])cc1[N+](=O)[O-] [Oryzalin] | > 46 |
| CCOC(=O)[N-]c1c[n+](N2CCOCC2)no1 [Molsidomine] | > 46 |
| Cn1c(CCCC(=O)O)nc2cc(N(CCCl)CCCl)ccc21 [BENDAMUSTINUM] | > 46 |
| CCC1(CC)C(=O)N\C=C/C1=O [PYRITHYLDIONE] | > 46 |
| COc1cccc([C@@]2(O)CCCC[C@@H]2CN(C)C)c1 [Tramadolum] | > 46 |
| O=[P@@]1(NCCCl)OCCCN1CCCl [Ifosfamide] | > 46 |
| C=C(C)[C@@H]1C2OC(=O)C1[C@]1(O)C[C@H]3O[C@]34C(=O)O[C@H]2[C@]14C.CC(C)(O)[C@@H]1C2OC(=O)[C@@H]1[C@]1(O)C[C@H]3O[C@]34C(=O)O[C@H]2[C@]14C [Picrotoxin] | > 46 |
| CCCCC/C=C\C/C=C\C/C=C\C/C=C\CCCC(=O)NCC(=O)O [N-ARACHIDONYLGLYCINE] | > 46 |
| CCC(=O)Nc1ccc(O)cc1 [Parapropamol] | > 46 |

| SMILES | IC50 of cell viability [µM] |
| --- | --- |
| COc1nccnc1N[S+](=O)([O-])c1ccc(N)cc1 [Sulfalene] | > 46 |
| [N-]=[N+]=CC(=O)OCC(N)C(=O)O (stereo not drawn) [AZASERINE] | > 46 |
| O=[N+]([O-])c1ccc(Oc2ccc(N=C=S)cc2)cc1 [Nitroscanate] | > 46 |
| C#CCN(C)CCCOc1ccc(Cl)cc1Cl.Cl [Clorgyline hydrochloride] | > 46 |
| CC(=O)O.CNC(=N)NCCC[C@H](N)C(=O)O [NG-Monomethyl-L-arginine acetate] | > 46 |
| CCCC(=O)Nc1ccc(OC[C@@H](O)CNC(C)C)c(C(C)=O)c1 [Acebutolol hydrochloride] | > 46 |
| CCNC(=O)N1CCN(CCCC(c2ccc(F)cc2)c2ccc(F)cc2)CC1.Cl [Amperozide hydrochloride] | > 46 |
| CCCCCCCCC(=O)NCc1ccc(O)c(OC)c1 [Nonanamide, N-[(4-hydroxy-3-methoxyphenyl)methyl]-] | > 46 |
| COc1ccc(/C=N/NC(=O)c2ccncc2)cc1OC [Verazide] | > 46 |
| NC(=O)c1cn(Cc2c(F)cccc2F)nn1 [RUFINAMIDE] | > 46 |
| CC(/C=C/C=C(\C)C(=O)O[C@@H]1O[C@H](CO[C@@H]2O[C@H](CO)[C@@H](O)[C@H](O)[C@H]2O)[C@@H](O)[C@H](O)[C@H]1O)=C\C=C\C=C(C)\C=C\C=C(/C)C(=O)O[C@@H]1O[C@H](CO[C@@H]2O[C@H](CO)[C@@H](O)[C@H](O)[C@H]2O)[C@@H](O)[C@H](O)[C@H]1O [SAFFRON] | > 46 |
| CCCCC(CC)COC(=O)CC(C(=O)OCC(CC)CCCC)S(=O)(=O)[O-] (stereo not drawn) [Colace] | > 46 |
| CC(CSC(=O)c1ccccc1)C(=O)N1CC(Sc2ccccc2)CC1C(=O)[O-] (stereo not drawn) [ZOFENOPRIL Calcium Salt] | > 46 |
| CN(C)C(=O)Oc1cc(OC(=O)N(C)C)cc([C@@H](O)CNC(C)(C)C)c1 [Bambuterol hydrochloride] | > 46 |
| N=C(N)NN.O=[S+]([O-])(O)O [2-AMINOGUANIDINE HEMISULFATE] | > 46 |
| C[N+]1(CCF)[C@@H]2CC[C@@H]1CC(OC(=O)C(O)(c1ccccc1)c1ccccc1)C2 (stereo partly drawn) [Flutropium] | > 46 |
| CN1C(=O)[C@@H](NC(=O)c2cc3ccccc3[nH]2)N=C(c2ccccc2)c2ccccc21 [DEVAZEPIDUM] | > 46 |
| OC[C@H]1O[C@@H]2O[C@H]3[C@H](O)[C@@H](O)[C@@H](O[C@H]4[C@H](O)[C@@H](O)[C@@H](O[C@H]5[C@H](O)[C@@H](O)[C@@H](O[C@H]6[C@H](O)[C@@H](O)[C@@H](O[C@H]7[C@H](O)[C@@H](O)[C@@H](O[C@H]8[C@H](O)[C@@H](O)[C@@H](O[C@H]1[C@H](O)[C@H]2O)O[C@@H]8CO)O[C@@H]7CO)O[C@@H]6CO)O[C@@H]5CO)O[C@@H]4CO)O[C@@H]3CO [beta-Cyclodextrin] | > 46 |
| CC12CCC(C1)C(C)(C)C2=O (stereo not drawn) [FENCHONE] | > 46 |

Next, values leading:

| IC50 of cell viability [µM] | SMILES |
| --- | --- |
| > 46 | NC(CO)(CO)CO.O=C(c1ccccc1)c1ccc2n1CC[C@H]2C(=O)O [Ketorolac tromethamine] |
| > 46 | CNCCCCOc1ccccc1Cc1ccccc1 [Bifemelane] |
| > 46 | CCCCOc1ccc(CC(=O)NO)cc1 [Bufexamac] |
| > 46 | NC(=O)N1C2=C(C=CC=C2)\C=C/C3=C1C=CC=C3 [Carbamazepine] |
| > 46 | COC(=O)C1=C(C)NC(C)=C(C(=O)O[C@H]2CCN(Cc3ccccc3)C2)C1c1cccc([N+](=O)[O-])c1 (stereo partly drawn) [Barnidipine] |
| > 46 | Cc1ccc2c(Cl)cc(Cl)c(O)c2n1 [5,7-Dichloro-8-hydroxy-2-methylquinoline] |
| > 46 | NC(=O)Cc1cccc(C(=O)c2ccccc2)c1N [Nepafenac] |
| > 46 | CO[C@@]1(NC(=O)[C@@H]2S\C(S2)=C(\C(N)=O)C(O)=O)[C@@H]3SC\C(=C(/N3C1=O)C(O)=O)CSC4=NN=N[N]4C (stereo partly drawn) [Cefotetan] |
| > 46 | Cc1cc(NS(=O)(=O)c2ccc(N)cc2)nc(C)n1 [Sulfisomidine] |
| > 46 | CC(C)(CO)[C@@H](O)C(=O)NCCC(=O)NCCSSCCNC(=O)CCNC(=O)[C@H](O)C(C)(C)CO [PANTETHINE] |
| > 46 | CN(C)[C@@H]\1[C@@H]2C[C@H]3\C(=C(\O)[C@@]2(O)C(=O)\C(=C1O)C(N)=O)C(=O)C4=C(C=CC=C4O)[C@@]3(C)O [Tetracycline hydrochloride] |
| > 46 | COc1cc(C(=O)N2CCCCCCC2)cc(OC)c1OC [TROCIMINUM] |
| > 46 | CC(=O)Oc1ccc(C)cc1 [CRESYL ACETATE] |
| > 46 | CC(C)COCC(CN(Cc1ccccc1)c1ccccc1)N1CCCC1 (stereo not drawn) [BEPRIDIL] |
| > 46 | CC(=O)O[C@@]12CO[C@@H]1C[C@H](O)[C@]3(C)[C@@H]2[C@H](OC(=O)C4=CC=CC=C4)[C@]5(O)C[C@H](OC(=O)C(O)[C@@H](NC(=O)OC(C)(C)C)C6=CC=CC=C6)C(=C(/[C@@H](O)C3=O)C5(C)C)/C (stereo partly drawn) [Docetaxel] |
| > 46 | N[S+](=O)([O-])c1cc(C(=O)O)cc(N2CCCC2)c1Oc1ccccc1 [Piretanide] |
| > 46 | Cc1nnc(C(C)C)n1C1C[C@H]2CC[C@@H](C1)N2CC[C@H](NC(=O)C1CCC(F)(F)CC1)c1ccccc1 (stereo partly drawn) [Maraviroc] |
| > 46 | N=C(N)N.O=C(O)O [GUANIDINE CARBONATE] |
| > 46 | CCOC(=O)COc1ccc2c(=O)cc(-c3ccccc3)oc2c1 [Efloxate] |
| > 46 | COCCCOc1ccnc(C[S+]([O-])c2nc3ccccc3[n-]2)c1C (stereo not drawn) [RABEPRAZOLE SODIUM] |
| > 46 | N=C1NC(=N)c2cc3ccccc3cc21 [1,3-Diiminobenz[f]isoindoline] |
| > 46 | OCCN(CCO)c1nc(N2CCCCC2)c2nc(N(CCO)CCO)nc(N3CCCCC3)c2n1 [DIPYRIDAMOLE] |
| > 46 | COCCc1ccc(OCC(O)CNC(C)C)cc1 (racemic) [(±)-Metoprolol (+)-tartrate salt] |
| > 46 | CCOC1=CC\2=C(NC(C)(C)\C=C2C)C=C1 [Ethoxyquin] |
| > 46 | CC(C)OC(=O)c1cc(C(=O)OC(C)C)cc([N+](=O)[O-])c1 [Nitrothal-isopropyl] |
| > 46 | CCCCCCCCCCCCCCCC(=O)OCCC1CCN(CCCN2c3ccccc3Sc3ccc([S+](=O)([O-])N(C)C)cc32)CC1 [Pipothiazine palmitate] |
| > 46 | N#C/C(=C1/SC[C@@H](c2ccc(Cl)cc2Cl)S1)n1ccnc1 [LULICONAZOLE] |
| > 46 | CCOC(=O)N1CCC(=C2c3ccc(Cl)cc3CCc3cccnc32)CC1 [LORATADINE] |
| > 46 | O=C1c2cccc(O)c2C(=O)c2c(O)cccc21 [Danthron] |
| > 46 | CC[N+](CC)(CC)CCOc1ccc(/C=C/c2ccccc2)cc1 [MG 624] |
